# Laboratory results: patent US8969336B2, “Diamino heterocyclic carboxamide compound” (Astellas Pharma Inc., priority 2009, dated 2015)
# Tests used:
# [1] = target: EML4-ALK fusion protein v1 (Homo sapiens (Human), UniProt Q9UM73); experiment: Inhibitory activity against the kinase activity of EML4-ALK fusion protein (HTRF KinEASE-TK); type: biochemical; details: ATP 100 μM, reaction 1 hour
# From the text: A recombinant retrovirus was created from expression plasmid FLAG-EML4-ALKv1/pMX-iresCD8 in which cDNA for EML4-ALK fusion protein v1 was integrated, and injected into mouse lymphoid cell line BA/F3 cells. Using a magnetic bead reagent for cell separation and a purification column (anti-CD8 monoclonal antibody immobilized on magnetic beads and a MiniMACS purification column; both are products of Miltenyi Biotec Inc.), cell surface CD8-expressing cells were purified to establish EML4-ALK fusion protein v1-expressing BA/F3 cells. From the cells, EML4-ALK fusion protein v1 was purified and subjected to kinase activity evaluation. EML4-ALK fusion protein v1 was investigated for its phosphorylation activity toward a peptide substrate by using a kinase activity detection kit (HTRF KinEASE-TK; Cisbio Inc.). […] The ATP concentration used was 100 μM.
# [2] = system: BA/F3 cells expressing EML4-ALK fusion protein v1; experiment: Growth inhibitory activity against EML4-ALK fusion protein-dependent cells; type: cell-based, mouse; details: Mus musculus, BaF3, 48 h, growth of EML4-ALK fusion protein v1-expressing BA/F3 cells, cultured 2 days
# Method: EML4-ALK fusion protein v1-expressing BA/F3 cells can grow in the absence of IL-3. In other words, they are cells that EML4-ALK fusion protein v1-dependently grow.
# In a 96-well plate (Iwaki), BA/F3 cells expressing EML4-ALK fusion protein v1 were seeded at 500 cells per well in RPMI1640 medium (Invitrogen) containing 10% fetal bovine serum, followed by addition of a test compound (final concentration: 10 μM to 0.1 nM). As a negative control, DMSO used as a solvent of the test compound was added. Then, the cells were cultured under 5% CO2 at 37° C. for 2 days. A cell counting reagent (AlmarBlue; Biosource) was added, and the cells were cultured for 150 minutes, followed by measurement of fluorescence intensity with a […] (Safire; Tecan) in accordance with instructions attached to the reagent.
# [3] = system: human non-small cell lung cancers cell line NCI-H2228 cells; experiment: Antitumor test (in vivo) on NCI-H2228 cells; details: NOD/SCID mice
# From the text: The antitumor effects on EML4-ALK fusion protein-dependent cells can also be confirmed by use of human non-small cell lung cancers cell line NCI-H2228 cells (cells derived from EML4-ALK fusion polynucleotide-positive lung cancer patients (EML4-ALK fusion protein v3-dependent cells)) in place of the EML4-ALK fusion protein v1 expressing 3T3 cells of Test Example 3, as shown below.
# 3×10^6 cells of NCI-H2228 cells suspended in 50% Matrigel (Invitrogen) were inoculated subcutaneously by injection to the back of 5 weeks old male NOD/SCID mice (Charles River Japan, Inc.). After 3 weeks of the inoculation, the administration of test compounds was initiated. The test was conducted in the solvent group and test compound groups, 6 animals per group. The test compounds were each dissolved in a solvent composed of 10% 1-methyl-2-pyrrolidinone (SIGMA-ALDRICH Inc.)/90% polyethylene glycol 300 (Fluka Inc.) and administered orally at a dose of 1 mg/kg. Administrations were performed once a day for 14 days, and body weight and tumor size were measured every other day. Tumor volume was calculated using the following formula. [Tumor volume(mm^3)]=[Tumor major axis(mm)]×[tumor minor axis(mm)]^2×0.5
# [4] = system: EML4-ALK fusion protein v1 expressing 3T3 cells; experiment: Antitumor test (in vivo) on EML4-ALK fusion protein v1 expressing 3T3 cells; details: oral 10 mg/kg once a day for 5 days, Balb/c nude mice, EML4-ALK v1 3T3 tumor; values marked (regression)
# From the text: Expression plasmid EML4-ALKv1/pMXS in which cDNA for EML4-ALK fusion protein v1 was integrated was trasfected into 3T3 fibroblast cells by the phosphate calcium method to thereby establish EML4-ALK fusion protein v1 expressing 3T3 cells. 3×10^6 cells of EML4-ALK fusion protein v1 expressing 3T3 cells suspended in PBS were inoculated subcutaneously by injection to the back of 5 weeks old male Balb/c nude mice (Charles River Japan, Inc.). After 7 days of the inoculation, the administration of test compound was initiated. The test was conducted in the solvent group and the compound group, 4 animals per group. The test compound was suspended in a solvent composed of 0.5% methylcellulose and administered orally at a dose of 10 mg/kg. Administrations were performed once a day for 5 days, and body weight and tumor size were measured every other day. Tumor volume was calculated using the following formula. [Tumor volume(mm^3)]=[Tumor major axis(mm)]×[tumor minor axis(mm)]^2×0.5
# When regression of tumor volume is induced from the day of starting administration, the tumor volume on the day of starting administration and the state in which the tumor disappeared were assumed to be 0% regression and 100% regression, respectively, and the rate of regression of the test compound was calculated.
# ROS protein = ROS protein (Homo sapiens (Human), UniProt P08922); experiment: Inhibitory activity against the kinase activity of ROS protein; type: biochemical; details: ROS kinase domain, ATP 50 uM
# RET protein = RET protein (Homo sapiens (Human), UniProt P07949); experiment: Inhibitory activity against the kinase activity of RET protein; type: biochemical; details: RET kinase domain, ATP 100 μM, reaction 30 minutes
# RET protein, sequence (P07949 724-1016): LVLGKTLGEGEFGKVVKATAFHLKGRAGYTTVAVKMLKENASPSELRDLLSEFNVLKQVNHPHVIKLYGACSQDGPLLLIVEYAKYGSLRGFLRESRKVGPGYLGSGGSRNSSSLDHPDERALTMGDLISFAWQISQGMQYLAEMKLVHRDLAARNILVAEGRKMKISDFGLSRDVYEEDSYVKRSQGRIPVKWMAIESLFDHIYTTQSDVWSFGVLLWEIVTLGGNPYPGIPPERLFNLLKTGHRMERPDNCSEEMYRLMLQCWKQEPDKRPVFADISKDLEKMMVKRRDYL
# EML4-ALK fusion protein v1, sequence (Q9UM73 other isoform, or with tags, fused parts or gaps): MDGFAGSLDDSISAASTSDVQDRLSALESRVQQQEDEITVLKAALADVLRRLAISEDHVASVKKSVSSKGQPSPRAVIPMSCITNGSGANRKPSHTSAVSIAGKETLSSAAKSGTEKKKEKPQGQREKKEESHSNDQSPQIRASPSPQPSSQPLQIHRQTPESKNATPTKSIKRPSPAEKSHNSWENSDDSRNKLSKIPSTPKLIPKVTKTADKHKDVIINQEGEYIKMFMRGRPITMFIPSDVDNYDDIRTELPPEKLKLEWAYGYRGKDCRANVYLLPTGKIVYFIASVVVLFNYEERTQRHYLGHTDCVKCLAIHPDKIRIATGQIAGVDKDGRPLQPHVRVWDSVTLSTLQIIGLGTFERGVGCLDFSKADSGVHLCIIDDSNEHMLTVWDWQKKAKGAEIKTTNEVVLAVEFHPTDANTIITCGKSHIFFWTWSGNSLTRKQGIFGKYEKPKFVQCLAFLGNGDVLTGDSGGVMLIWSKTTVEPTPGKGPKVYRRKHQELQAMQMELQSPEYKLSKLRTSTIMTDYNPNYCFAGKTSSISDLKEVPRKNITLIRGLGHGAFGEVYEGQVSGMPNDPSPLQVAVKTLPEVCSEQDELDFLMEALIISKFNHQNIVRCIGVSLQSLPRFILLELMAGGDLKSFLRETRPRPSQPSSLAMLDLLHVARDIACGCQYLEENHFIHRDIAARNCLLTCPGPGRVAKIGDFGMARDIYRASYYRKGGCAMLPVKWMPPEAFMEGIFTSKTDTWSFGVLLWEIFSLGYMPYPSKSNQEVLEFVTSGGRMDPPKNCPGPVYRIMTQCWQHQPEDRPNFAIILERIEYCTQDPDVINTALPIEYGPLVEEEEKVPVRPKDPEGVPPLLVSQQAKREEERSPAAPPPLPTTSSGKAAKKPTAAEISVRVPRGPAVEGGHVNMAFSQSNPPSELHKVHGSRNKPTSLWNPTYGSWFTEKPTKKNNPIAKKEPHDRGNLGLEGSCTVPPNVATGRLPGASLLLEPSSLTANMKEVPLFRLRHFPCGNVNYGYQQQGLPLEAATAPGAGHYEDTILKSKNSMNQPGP
# ROS protein, sequence (P08922 1945-2222): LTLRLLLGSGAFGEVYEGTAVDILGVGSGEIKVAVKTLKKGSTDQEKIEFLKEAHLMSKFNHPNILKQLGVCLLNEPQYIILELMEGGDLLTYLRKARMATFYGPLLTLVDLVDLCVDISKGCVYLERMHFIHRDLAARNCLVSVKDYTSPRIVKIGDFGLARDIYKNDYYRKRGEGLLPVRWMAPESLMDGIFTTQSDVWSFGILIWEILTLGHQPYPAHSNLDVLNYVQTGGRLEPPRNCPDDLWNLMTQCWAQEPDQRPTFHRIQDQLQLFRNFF
SMILES,IC50 [1],IC50 [2],"growth inhibition against NCI-H2228 cells (tumor) compared with the solvent group ([3]; oral administration, Student's t-test)",rate of regression (tumor volume) [4],inhibition rate of growth of tumor of NCI-H2228 cells ([3]; oral 1 mg/kg once a day for 14 days),IC50 (ROS protein),IC50 (RET protein)
"CCc1nc(C(N)=O)c(Nc2cccc(C)c2)nc1NCCN(C)C [Compound Y, 5-{[2-(dimethylamino)ethyl]amino}-6-ethyl-3-[(3-methylphenyl)amino]pyrazine-2-carboxamide, reference compound]",> 1000 nM,> 1000 nM,no significant growth inhibition,,,,
CC(C)c1nc(C(N)=O)c(Nc2ccc(N3CCC(N4CCN(C)CC4)CC3)cc2)nc1NC1CCOCC1 [Example 549],2.1 nM,14 nM,,67 (regression) %,69%,,
CCc1nc(C(N)=O)c(Nc2ccc(N3CCC(N4CCN(C)CC4)CC3)c(OC)c2)nc1NC1CCOCC1 [Example 577],,,,,,1.9 nM,3.4 nM
